Source: patent publication US20180027813A1, “Use of an agent to control resistant rodents” (priority 2015, published 2018)

How the values were obtained:
[1] = system: brown rat VKORC1 strain L120Q Berkshire; set-up: key: X = Strain exhibits a practical resistance to:; details: cited from earlier work
[2] = system: resistant rat strain "Westphalia" (VKORC1 Y139C); assay: Laboratory feeding tests with single anticoagulants; type: in vivo; details: feed baits with one active ingredient
From the text: The resistant rat strain “Westphalia”, characterized by the VKORC1 polymorphism Y139C, is resistant to the second-generation anticoagulants bromadiolone and difenacoum, and also to the first-generation active ingredients. Feed baits containing one of these active ingredients in the authorized concentration are not effective against animals of this strain.

[3] = system: brown rat VKORC1 strain Y139C; set-up: key to Practical resistance of the strain: X = Strain exhibits a practical resistance to:; details: cited from earlier work; for Sensitivity of animals with VKORC1 Tyr139Cys (in words): Y139C brown rats and house mice, difenacoum in rats only; for Practical resistance of the strain / Resistance in laboratory and field experiments (in words): strain Y139C
[4] = system: brown rat (Rattus norvegicus) strain L120Q Hampshire; details: BCR resistance test; cited from earlier work
[5] = system: brown rat (Rattus norvegicus) strain Y139S; details: determined on the basis of LD50; cited from earlier work
[6] = system: brown rat VKORC1 strain Y139F; set-up: key: X = Strain exhibits a practical resistance to:; details: cited from earlier work
[7] = system: brown rat VKORC1 strain Y139S; set-up: key to Practical resistance of the strain: X = Strain exhibits a practical resistance to:; details: cited from earlier work; for Tolerance / practical resistance (in words): strain Y139S (Wales); for Practical resistance of the strain: strain Y139S
[8] = system: brown rat (Rattus norvegicus) strain Y139F; details: BCR resistance test; cited from earlier work
[9] = system: brown rat VKORC1 strain L128Q; set-up: key: X = Strain exhibits a practical resistance to:; details: cited from earlier work
[10] = system: brown rat (Rattus norvegicus) strain Y139C; details: BCR resistance test; cited from earlier work
[11] = system: brown rats of the resistant strain Y139C; assay: Feeding experiment with brown rats of the resistant strain Y139C (Example 1); type: in vivo, brown rat; details: for Mortality (in words): resistant rats
Method: A cholecalciferol concentration of 100 mg/kg is enough to make it possible to achieve mortality rates of up to 100% (see the examples).
[…] received feed baits, as described below, over a period of 4 days. Consumption and mortality were determined afterwards. One group (6 rats, Group 1) was fed a feed bait consisting of coumatetralyl (375 mg/kg) and cholecalciferol (100 mg/kg). The other group (Group 2) was fed coumatetralyl on its own (375 mg/kg). All animals consumed the feed baits except for one animal from Group 2. Consumption was highest during the first 24 hours. On the third and fourth day, there was only little consumption. […] Two males each consumed approximately 47 mg/kg coumatetralyl and 12.5 mg/kg cholecalciferol (based on the body weight). The females consumed from 50 to 79 mg/kg coumatetralyl and from 13 to 21 mg/kg cholecalciferol (based in each case on the body weight). In Group 2, no mortality was observed, although the animals consumed 94 mg/kg coumatetralyl (mean value based on the body weight).

[12] = system: rats caught on the farm (strain Y139C area); assay: Blood coagulation test with coumatetralyl on rats caught on the farm; type: in vivo, rat; details: blood coagulation test before control
From the text: The term “resistance(s)” in the context of the invention refers to “practical resistance”, characterized in that the rodenticide in question no longer achieves sufficient biological efficacy even with proper use and good acceptance of the bait by the rodents (see also Greaves—1994, Buckle A. P. and Smith R. H. eds. “Rodent Pests and their Control”, CABI, Wallingford, Oxon, UK, pages 197-217). A person skilled in the art can make a clear and unambiguous assessment in accordance with this definition as to whether a practical resistance is present or not. In general, the degree of “resistance” can be described by specifying a resistance factor. The resistance factor (RF) is usually calculated on the basis of the lethal dose (LD50) or of the effective dose (ED50). […] LD50 and ED50 are each determined experimentally for each strain. […] Until the 1980s, RFs were determined on the basis of the LD50. This method was later replaced by blood coagulation tests (BCR resistance tests), by means of which the ED50 can be determined more accurately (Prescott et al. 2007: A standardised BCR-resistance test for all anticoagulant rodenticides. Int. J. Pest Mgt. 53 (4), 265-272). Therefore, it is preferred according to the invention that RF be calculated via the quotient formed from the ED50 of the resistant strain and of a sensitive strain considered to be the reference. […]

Row | SMILES | Practical resistance of the strain [1] | Mortality [2] | Sensitivity of animals with VKORC1 Tyr139Cys (in words) [3] | Practical resistance of the strain [3] | Resistance in laboratory and field experiments (in words) [3] | Resistance factor (RF) for bromadiolone [4] | Resistance factor (RF) for bromadiolone [5] | Practical resistance of the strain [6] | Tolerance / practical resistance (in words) [7] | Resistance factor (RF) for bromadiolone [8] | Practical resistance of the strain [9] | Resistance factor (RF) for bromadiolone [10] | Practical resistance of the strain [7] | Mortality (in words) ([11]; cholecalciferol by itself at 100 mg/kg) | Mortality (in words) ([11]; coumatetralyl by itself) | Mortality ([11]; feed baits over 4 days, 6 rats of strain Y139C per group) | Share of rats on the farm resistant for coumatetralyl [12]
1 | O=c1oc2ccccc2c(O)c1C(CC(O)c1ccc(-c2ccc(Br)cc2)cc1)c1ccccc1 (stereo not drawn) [bromadiolone] | X | no mortality | virtually completely insensitive | X | resistant | 10-14 | 2.7-6.9 | X | no practical resistance | 7-9 | X | 15-17 | – | – | – | – | –
2 | O=C1c2ccccc2C(=O)C1C(=O)C(c1ccccc1)c1ccc(Cl)cc1 (stereo not drawn) [chlorophacinone, (1′-p-chlorophenyl-1′-phenyl)-2-acetylindane-1,3-dione] | X | – | – | X | – | – | – | X | – | – | X | – | X | – | – | – | –
3 | C=C1CC[C@H](O)C/C1=C/C=C1\CCC[C@]2(C)[C@@H]([C@H](C)CCCC(C)C)CC[C@@H]12 [cholecalciferol] | – | – | – | – | – | – | – | – | – | – | – | – | – | does not cause mortality | – | – | –
4 | O=c1oc2ccccc2c(O)c1C1CCCc2ccccc21 (stereo not drawn) [coumatetralyl, 3-(1′,2′,3′,4′-tetrahydro-1′-naphthyl)-4-hydroxycoumarin] | X | no mortality | virtually completely insensitive | X | – | – | – | X | – | – | X | – | X | – | does not cause mortality | no mortality | approximately 46%
5 | O=c1oc2ccccc2c(O)c1C1CC(c2ccc(-c3ccccc3)cc2)Cc2ccccc21 (stereo not drawn) [difenacoum, 3-(3′-paradiphenylyl-1′,2′,3′,4′-tetrahydro-1′-naphthyl)-4-hydroxycoumarin] | X | – | virtually completely insensitive | X | resistant | – | – | – | – | – | – | – | – | – | – | – | –
6 | CC(=O)CC(c1ccccc1)c1c(O)c2ccccc2oc1=O (stereo not drawn) [warfarin, (1-phenyl-2-acetyl)-3-ethyl-4-hydroxycoumarin] | X | – | virtually completely insensitive | X | – | – | – | X | somewhat more tolerant | – | X | – | X | – | – | – | –
